Data: US10888099B2, “Granulation of a Stevia sweetener” (PureCircle Sdn Bhd, priority 2009, dated 2021)
Where two headings read alike, the source gives them in different places. Where a SMILES comes first, the peptide text is derived from it.

Key:
[1] = standard sweetening power, Saccharose = 1; cited from earlier work
[2] = cited from earlier work
[3] = cited from earlier work; for solubility: known Rebaudioside A forms, g soluble in 100 g solvent
[4] = assay type: physicochemical
Method: Hereinafter, unless specified otherwise, the solubility of a material is determined in reverse osmosis water at room temperature. […] The obtained powder was loaded into a 1000 L rotary vacuum dryer and dried at 105° C. at 10 mbar pressure for 3 hours. After 3 hours, preheated nitrogen at 100° C. was introduced into the vacuum chamber till ambient pressure was reached. Upon reaching ambient pressure, the vacuum dryer was connected to a vent and the nitrogen flow was continued at 100 L/min for a 4-hour time period. […] A sample of the powder was withdrawn from the dryer and the solubility tested in deionized water at room temperature.

For CC1=CC(=O)NS(=O)(=O)O1 [Acesulfame-K], which Sweetness power [1] is on record?
Its Sweetness power is 200.

Which Sweetness power [1] does the source give for C[C@@H](NC(=O)[C@@H](N)CC(=O)O)C(=O)NC1C(C)(C)SC1(C)C [Alitame] here?
Its Sweetness power is 2000.

With COC(=O)[C@H](Cc1ccccc1)NC(=O)[C@@H](N)CC(=O)O [Aspartame] (H-Asp-Phe-OMe) as the compound, how does the Sweetness power [1] read?
The Sweetness power was 200.

Which results are given for C=C1C[C@@]23CC[C@H]4[C@@](C)(CCC[C@@]4(C)C(=O)O[C@@H]4O[C@H](CO)[C@@H](O)[C@H](O)[C@H]4O)[C@@H]2CC[C@]1(O[C@@H]1O[C@H](CO)[C@@H](O)[C@H](O[C@@H]2O[C@H](CO)[C@@H](O)[C@H](O)[C@H]2O)[C@H]1O[C@@H]1O[C@H](CO)[C@@H](O)[C@H](O)[C@H]1O)C3 [Form 1, Rebaudioside A]?
Rate of dissolution in H2O at 25° C. ([2]; grade in words): Very low; Rate of dissolution in H2O at 25° C. ([2]; in 60 minutes): (<0.2% in; solubility (in words) ([3]; compared among Rebaudioside A forms): lowest solubility; solubility ([3]; listed as hydrate form): less than 0.2%

Which “Rate of dissolution in H2O at 25° C.” value ([2]; grade in words) does the source give for C=C1C[C@@]23CC[C@H]4[C@@](C)(CCC[C@@]4(C)C(=O)O[C@@H]4O[C@H](CO)[C@@H](O)[C@H](O)[C@H]4O)[C@@H]2CC[C@]1(O[C@@H]1O[C@H](CO)[C@@H](O)[C@H](O[C@@H]2O[C@H](CO)[C@@H](O)[C@H](O)[C@H]2O)[C@H]1O[C@@H]1O[C@H](CO)[C@@H](O)[C@H](O)[C@H]1O)C3 [Form 2, Rebaudioside A] here?
Its value is “Intermediate”.

And the “Rate of dissolution in H2O at 25° C.” value ([2]; in 5 minutes)?
The value was “(<30% in 5”.

And the solubility ([3]; listed as anhydrous form of Rebaudioside A)?
Its solubility is “up to 30%”.

What about the solubility ([3]; listed as anhydrous form) of the same compound?
Its solubility is “up to 30%”.

Which results are given for C=C1C[C@@]23CC[C@H]4[C@@](C)(CCC[C@@]4(C)C(=O)O[C@@H]4O[C@H](CO)[C@@H](O)[C@H](O)[C@H]4O)[C@@H]2CC[C@]1(O[C@@H]1O[C@H](CO)[C@@H](O)[C@H](O[C@@H]2O[C@H](CO)[C@@H](O)[C@H](O)[C@H]2O)[C@H]1O[C@@H]1O[C@H](CO)[C@@H](O)[C@H](O)[C@H]1O)C3 [Form 3, Rebaudioside A]?
Rate of dissolution in H2O at 25° C. ([2]; grade in words): High; Rate of dissolution in H2O at 25° C. ([2]; in 5 minutes): (>30% in; solubility ([3]; listed as solvate form): greater than 30%

What does the source list for C=C1C[C@@]23CC[C@H]4[C@@](C)(CCC[C@@]4(C)C(=O)O[C@@H]4O[C@H](CO)[C@@H](O)[C@H](O)[C@H]4O)[C@@H]2CC[C@]1(O[C@@H]1O[C@H](CO)[C@@H](O)[C@H](O[C@@H]2O[C@H](CO)[C@@H](O)[C@H](O)[C@H]2O)[C@H]1O[C@@H]1O[C@H](CO)[C@@H](O)[C@H](O)[C@H]1O)C3 [Form 4, Rebaudioside A]?
Rate of dissolution in H2O at 25° C. ([2]; grade in words): High; Rate of dissolution in H2O at 25° C. ([2]; in 5 minutes): (>35% in; solubility ([3]; listed as amorphous form): greater than 35%

With CC1(C)[C@@H](O[C@H]2O[C@H](C(=O)O)[C@@H](O)[C@H](O)[C@H]2O[C@@H]2O[C@H](C(=O)O)[C@@H](O)[C@H](O)[C@H]2O)CC[C@]2(C)[C@H]3C(=O)C=C4[C@@H]5C[C@@](C)(C(=O)O)CC[C@]5(C)CC[C@@]4(C)[C@]3(C)CC[C@@H]12 [Glycyrrhizin] as the compound, how does the Sweetness power [1] read?
Its Sweetness power is 50.

With COc1ccc(CCC(=O)c2c(O)cc(O[C@@H]3O[C@H](CO)[C@@H](O)[C@H](O)[C@H]3O[C@@H]3O[C@@H](C)[C@H](O)[C@@H](O)[C@H]3O)cc2O)cc1O [NHDC, neohesperidin dihydrochalcone] as the compound, how does the Sweetness power [1] read?
The Sweetness power was 1000.

Which results are given for C=C1C[C@@]23CC[C@H]4[C@@](C)(CCC[C@@]4(C)C(=O)O[C@@H]4O[C@H](CO)[C@@H](O)[C@H](O)[C@H]4O)[C@@H]2CC[C@]1(O[C@@H]1O[C@H](CO)[C@@H](O)[C@H](O[C@@H]2O[C@H](CO)[C@@H](O)[C@H](O)[C@H]2O)[C@H]1O[C@@H]1O[C@H](CO)[C@@H](O)[C@H](O)[C@H]1O)C3 [Rebaudioside A]?
solubility [4]: 1.6%; Sweetness power [1]: 450

Which Sweetness power [1] does the source give for O=C1NS(=O)(=O)c2ccccc21 [Saccharine] here?
Its Sweetness power is 300.

Which Sweetness power [1] does the source give for OC[C@H]1O[C@@](CO)(O[C@H]2O[C@H](CO)[C@@H](O)[C@H](O)[C@H]2O)[C@@H](O)[C@@H]1O [Saccharose] here?
Its Sweetness power is 1.

Which Sweetness power [1] does the source give for C=C1C[C@@]23CC[C@H]4[C@@](C)(CCC[C@@]4(C)C(=O)O[C@@H]4O[C@H](CO)[C@@H](O)[C@H](O)[C@H]4O)[C@@H]2CC[C@]1(O[C@@H]1O[C@H](CO)[C@@H](O)[C@H](O)[C@H]1O[C@@H]1O[C@H](CO)[C@@H](O)[C@H](O)[C@H]1O)C3 [Stevioside] here?
The Sweetness power was 200.

With OC[C@H]1O[C@H](O[C@]2(CCl)O[C@H](CCl)[C@@H](O)[C@@H]2O)[C@H](O)[C@@H](O)[C@H]1Cl [Sucralose] as the compound, how does the Sweetness power [1] read?
The Sweetness power was 600.

Which dissolution time ([4]; deionized water at room temperature) does the source give for C=C1C[C@@]23CC[C@H]4[C@@](C)(CCC[C@@]4(C)C(=O)O[C@@H]4O[C@H](CO)[C@@H](O)[C@H](O)[C@H]4O)[C@@H]2CC[C@]1(O[C@@H]1O[C@H](CO)[C@@H](O)[C@H](O[C@@H]2O[C@H](CO)[C@@H](O)[C@H](O)[C@H]2O)[C@H]1O[C@@H]1O[C@H](CO)[C@@H](O)[C@H](O)[C@H]1O)C3 [high solubility Rebaudioside A powder, Rebaudioside A] here?
Its dissolution time is 7 min.

Which Sweetness power [1] does the source give for Thaumatin here?
Its Sweetness power is 3000.
